Measurements as given in patent US20210205244A1, “PREVENTION AND/OR TREATMENT OF CHRONIC FATIGUE SYNDROME” (BOHNE ASKØY AS, priority 2016, published 2021).
Counter-ions that a name gives are not always drawn.

Tests used:
[1] = system: healthy and ME affected persons; conditions: general knowledge; cited from earlier work
[2] = system: Person 5; test: Medicinal drug use in combination with the treatment; format: in vivo, human; conditions: Person 5, excluded after 20 weeks
Experimental: Three persons were not receiving the drinkable for self-treatment: 2, 5 and 6. […] Person 6 was excluded of toxicological consideration after 20 weeks because massive use of painkiller […] forte, 600 mg: 20 tablets per day, and was practically an abuser of medicinal drugs. Person 2 was excluded because use of sleep medicine-Alimemazin tartrate. All three drugs listed with long list of the negative by-effects. Those effects are very similar to the symptoms on the list of Canadian Criteria. Further treatment with mixture of drinkable oxalates was therefore is not considerate.

[3] = system: P12; conditions: P12, altogether 8 doses; cited from earlier work

For `O=C(O)CCCCC1CCSS1` (stereo not drawn) [ALA, alpha-lipoic acid], the “Time of excretion via urine post intake” value [1] is listed as 30 to 60 min.
For `CN(C)CCC[C@@]1(c2ccc(F)cc2)OCc2cc(C#N)ccc21` [Escitalopram Oxalate], the “Adverse effect in combination with mixture of drinkable oxalates” value [2] was “massive diarrhea”.
In the case of “Rituximab: Rituximab therapy given in clinical studies at Haukeland University Hospital”, the Response to therapy [3] is given as “non-responder”.
